Square brackets hold non-standard residues; d marks the D form. Peptide text beside a SMILES is read from it. * marks the point of attachment. Asu = N[C@@H](CCCCCC(=O)O)C(=O)O; NHOH = ON*
Assays:
[1] = Retention time by HPLC method; format: physicochemical
Histone deacetylase 1 = Histone deacetylase 1 (Homo sapiens, UniProt Q13547); assay: Inhibition of human HDAC1 expressed in HEK293T cells assessed as aminomethyl coumarin release using Ac-KGLGK(Ac)-MCA) substrate after 30 mins by FLIPR method; format: cell-based, HEK-293T
Histone deacetylase 4 = Histone deacetylase 4 (Homo sapiens, UniProt P56524); assay: Inhibition of human HDAC4 expressed in HEK293T cells assessed as aminomethyl coumarin release using Ac-KGLGK(Ac)-MCA) substrate after 30 mins by FLIPR method; format: cell-based; conditions: hek-293t
[2] = target: T1, Protein deacetylase HDAC6 (Mus musculus, UniProt Q9Z2V5); assay: Inhibition of mouse HDAC6 expressed in HEK293T cells assessed as aminomethyl coumarin release using Ac-KGLGK(Ac)-MCA) substrate after 30 mins by FLIPR method; format: cell-based, HEK-293T
T1 sequence (Q9Z2V5 whole entry): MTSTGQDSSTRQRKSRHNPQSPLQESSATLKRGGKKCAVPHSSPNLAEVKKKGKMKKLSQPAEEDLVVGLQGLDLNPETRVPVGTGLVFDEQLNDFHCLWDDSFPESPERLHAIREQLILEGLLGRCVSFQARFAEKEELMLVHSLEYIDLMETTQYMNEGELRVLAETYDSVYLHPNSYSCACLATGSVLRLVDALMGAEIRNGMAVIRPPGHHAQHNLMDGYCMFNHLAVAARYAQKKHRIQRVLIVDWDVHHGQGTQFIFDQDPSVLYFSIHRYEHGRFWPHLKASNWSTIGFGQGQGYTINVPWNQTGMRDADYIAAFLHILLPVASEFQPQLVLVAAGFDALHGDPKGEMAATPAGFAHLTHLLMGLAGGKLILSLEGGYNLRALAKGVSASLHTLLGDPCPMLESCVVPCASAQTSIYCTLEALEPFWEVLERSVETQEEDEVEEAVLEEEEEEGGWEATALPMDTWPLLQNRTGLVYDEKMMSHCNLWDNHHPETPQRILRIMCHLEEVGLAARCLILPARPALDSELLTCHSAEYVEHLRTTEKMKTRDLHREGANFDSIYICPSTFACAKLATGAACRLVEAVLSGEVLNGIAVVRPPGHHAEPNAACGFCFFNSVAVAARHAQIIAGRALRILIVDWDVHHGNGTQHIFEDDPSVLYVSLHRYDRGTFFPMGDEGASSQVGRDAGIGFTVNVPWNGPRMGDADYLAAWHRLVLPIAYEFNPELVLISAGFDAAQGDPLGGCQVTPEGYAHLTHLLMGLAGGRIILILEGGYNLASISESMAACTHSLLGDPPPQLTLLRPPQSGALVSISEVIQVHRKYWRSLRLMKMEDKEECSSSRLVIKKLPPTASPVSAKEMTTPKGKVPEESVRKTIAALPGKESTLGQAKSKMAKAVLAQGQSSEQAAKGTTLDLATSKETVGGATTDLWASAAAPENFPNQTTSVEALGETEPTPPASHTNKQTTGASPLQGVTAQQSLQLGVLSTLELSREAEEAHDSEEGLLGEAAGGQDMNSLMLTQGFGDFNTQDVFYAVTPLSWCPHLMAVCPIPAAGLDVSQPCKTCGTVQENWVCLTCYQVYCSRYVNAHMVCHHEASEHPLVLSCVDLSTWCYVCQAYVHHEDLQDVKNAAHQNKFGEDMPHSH

[3] = Selectivity index, ratio of IC50 for mouse HDAC6 to IC50 for human HDAC1
Mv1Lu = assay: Inhibition of HDAC in mink Mv1Lu cells expressing human wild-type p21 promoter luciferase fusion plasmid assessed as drug level inducing 10-fold higher luciferase activity by p21 promoter assay relative to baseline; format: cell-based; conditions: Neovison vison

Sequence of Histone deacetylase 1 (Q13547 whole entry): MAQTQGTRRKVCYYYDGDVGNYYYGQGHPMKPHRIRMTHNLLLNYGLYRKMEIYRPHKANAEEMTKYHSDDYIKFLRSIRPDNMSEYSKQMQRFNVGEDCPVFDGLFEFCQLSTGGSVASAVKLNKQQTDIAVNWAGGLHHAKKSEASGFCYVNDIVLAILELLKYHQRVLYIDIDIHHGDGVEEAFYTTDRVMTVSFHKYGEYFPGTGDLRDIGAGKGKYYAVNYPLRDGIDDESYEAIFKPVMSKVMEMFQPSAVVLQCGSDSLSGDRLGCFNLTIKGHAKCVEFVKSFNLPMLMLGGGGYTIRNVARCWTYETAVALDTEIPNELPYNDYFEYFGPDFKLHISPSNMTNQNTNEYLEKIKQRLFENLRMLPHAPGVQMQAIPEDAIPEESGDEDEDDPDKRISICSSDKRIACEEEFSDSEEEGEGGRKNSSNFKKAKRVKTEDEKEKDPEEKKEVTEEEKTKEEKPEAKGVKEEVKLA
Sequence of Histone deacetylase 4 (P56524 whole entry): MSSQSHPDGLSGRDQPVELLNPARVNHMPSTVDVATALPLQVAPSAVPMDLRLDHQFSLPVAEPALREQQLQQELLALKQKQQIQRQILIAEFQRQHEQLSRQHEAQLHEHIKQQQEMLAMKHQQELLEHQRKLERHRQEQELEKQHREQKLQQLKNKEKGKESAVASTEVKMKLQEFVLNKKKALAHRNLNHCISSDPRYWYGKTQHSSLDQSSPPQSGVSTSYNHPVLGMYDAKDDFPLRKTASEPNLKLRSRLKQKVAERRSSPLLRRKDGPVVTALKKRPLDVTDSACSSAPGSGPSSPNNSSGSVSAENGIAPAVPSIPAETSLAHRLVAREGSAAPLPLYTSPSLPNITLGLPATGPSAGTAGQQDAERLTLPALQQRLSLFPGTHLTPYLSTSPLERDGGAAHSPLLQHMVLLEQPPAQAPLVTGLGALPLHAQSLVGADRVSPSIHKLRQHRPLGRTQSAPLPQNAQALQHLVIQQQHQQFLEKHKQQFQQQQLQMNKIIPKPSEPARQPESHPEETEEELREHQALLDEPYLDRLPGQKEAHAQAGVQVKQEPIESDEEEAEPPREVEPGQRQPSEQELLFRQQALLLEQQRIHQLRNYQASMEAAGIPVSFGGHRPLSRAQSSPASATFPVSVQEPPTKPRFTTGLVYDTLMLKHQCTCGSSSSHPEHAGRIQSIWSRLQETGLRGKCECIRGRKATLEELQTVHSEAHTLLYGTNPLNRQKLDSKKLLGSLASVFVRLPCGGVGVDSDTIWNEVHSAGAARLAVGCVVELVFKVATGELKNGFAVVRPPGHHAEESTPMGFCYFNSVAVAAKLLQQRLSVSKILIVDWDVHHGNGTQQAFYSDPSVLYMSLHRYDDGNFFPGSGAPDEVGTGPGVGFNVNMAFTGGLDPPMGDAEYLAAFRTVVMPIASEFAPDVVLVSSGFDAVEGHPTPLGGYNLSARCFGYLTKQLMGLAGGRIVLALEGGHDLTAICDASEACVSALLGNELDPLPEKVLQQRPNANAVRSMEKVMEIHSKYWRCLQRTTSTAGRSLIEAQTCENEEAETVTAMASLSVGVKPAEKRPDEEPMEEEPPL

Compound | Retention_time [1] [min] | IC50 (Histone deacetylase 1) [nM] | IC50 (Histone deacetylase 4) [nM] | IC50 [2] [nM] | Ratio IC50 [3] | EC1000 (Mv1Lu) [nM]
O=C(CCCCC[C@@H]1NC(=O)[C@H]2CCCN2C(=O)[C@@H]2CCOCCCCOCC[C@@H](NC1=O)C(=O)N2)NO | 4.31 | 31 | 41 | 240 | 7.7 | 2200
CC[C@H](C)[C@@H]1NC(=O)[C@@H](Cc2ccc(OC)cc2)NC(=O)[C@H](CCCCCC(=O)NO)NC(=O)[C@H]2CCCN2C1=O (cyclo([Asu](NHOH)[dY](Me)I[dP])) | – | 0.4 | 3 | 13 | 32.5 | 22
CCCCC[C@@H]1NC(=O)[C@H](CCCCCC(=O)NO)NC(=O)[C@H]2CCCN2C(=O)[C@H](CCCCC)NC1=O | 6.55 | 37 | 15 | 140 | 3.7 | 80
CCCCC[C@@H]1NC(=O)[C@@H](CCCCC)NC(=O)[C@H](CCCCCC(=O)NO)NC(=O)[C@H]2CCCN2C1=O | 7.51 | – | – | 340 | 13.6 | 13

Further compounds by falling IC50 [2], results first:

Retention_time [1] [min] | IC50 (Histone deacetylase 1) [nM] | IC50 (Histone deacetylase 4) [nM] | IC50 [2] [nM] | Ratio IC50 [3] | Compound | EC1000 (Mv1Lu) [nM]
7.67 | 43 | 43 | 570 | 13.3 | CCCCC[C@@H]1NC(=O)[C@H]2CCCN2C(=O)[C@H](CCCCCC(=O)NO)NC(=O)[C@@H](CCCCC)NC1=O | 80
7.06 | 25 | 31 | 490 | 19.6 | O=C(CCCCC[C@@H]1NC(=O)[C@H]2CCCCCCCCCC[C@H](NC(=O)[C@H]3CCCN3C1=O)C(=O)N2)NO | 58
6.03 | – | – | 410 | 45.1 | O=C(CCCCC[C@@H]1NC(=O)[C@H]2CCCN2C(=O)[C@@H]2CCCCCCCCCC[C@@H](NC1=O)C(=O)N2)NO | 7.2
5.8 | 25 | 26 | 230 | 9.2 | O=C(CCCCC[C@@H]1NC(=O)[C@H]2CCCN2C(=O)[C@@H]2CCCCCCCCCC[C@H](NC1=O)C(=O)N2)NO | 510

Source: ChEMBL document CHEMBL3352754, “Bicyclic tetrapeptides as potent HDAC inhibitors: effect of aliphatic loop position and hydrophobicity on inhibitory activity” (Bioorg Med Chem, 2014)
